Activity calls are given as the source filed them.
What was measured:
[1] = general mammalian cell viability loss – inhibitor set, cherry-pick, set 2, cytotoxicity control for miR-122 modulator project, dose response (AID 720697); type: functional, cell-based
[2] = molecular target: T1, Methionyl-tRNA synthetase, putative (Trypanosoma brucei brucei, UniProt Q38C91); type: functional, Trypanosoma brucei brucei strain 927/4 GUTat10.1
T1 sequence (Q38C91 whole entry): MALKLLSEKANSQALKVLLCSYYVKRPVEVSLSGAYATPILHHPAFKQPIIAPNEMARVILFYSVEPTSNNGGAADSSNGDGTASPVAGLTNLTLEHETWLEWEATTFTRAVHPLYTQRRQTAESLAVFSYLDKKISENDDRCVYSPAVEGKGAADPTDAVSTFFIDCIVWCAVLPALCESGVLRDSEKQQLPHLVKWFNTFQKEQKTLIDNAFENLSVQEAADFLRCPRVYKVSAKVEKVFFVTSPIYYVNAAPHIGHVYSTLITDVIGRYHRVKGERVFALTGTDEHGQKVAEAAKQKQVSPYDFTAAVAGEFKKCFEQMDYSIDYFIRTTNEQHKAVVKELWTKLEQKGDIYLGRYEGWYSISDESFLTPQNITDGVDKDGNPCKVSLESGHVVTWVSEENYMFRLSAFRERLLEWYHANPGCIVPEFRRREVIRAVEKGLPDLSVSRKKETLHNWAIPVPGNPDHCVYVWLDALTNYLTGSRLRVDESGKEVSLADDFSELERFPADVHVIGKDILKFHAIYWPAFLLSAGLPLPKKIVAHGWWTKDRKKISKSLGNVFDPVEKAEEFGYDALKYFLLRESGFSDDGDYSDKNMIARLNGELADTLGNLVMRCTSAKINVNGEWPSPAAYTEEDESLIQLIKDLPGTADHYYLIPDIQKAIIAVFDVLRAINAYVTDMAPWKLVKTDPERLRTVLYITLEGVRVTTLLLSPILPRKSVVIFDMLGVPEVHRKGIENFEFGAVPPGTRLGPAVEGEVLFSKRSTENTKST

[3] = Counterscreen for inhibitors of Trypanosoma brucei methionyl tRNA synthetase (MetRS): Luminescence-based cell-based high throughput dose response assay to identify compounds that are cytotoxic to Jurkat human T lymphocyte cells.; type: functional
[4] = molecular target: T1, Methionyl-tRNA synthetase, putative; type: functional, Trypanosoma brucei brucei strain 927/4 GUTat10.1; remark: listed apart in the source
[5] = potency of ADAM10 substrate cleavage blockers – biochemical, QFRET, dose response (AID 743254);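 further: ADAM10 enzyme with the DM2 quenched FRET peptide as substrate; EDANS fluorescence gain as the protease cuts the substrate; inhibitor potency against ADAM10 proteolytic activity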
[6] = molecular target: T2, Heat shock factor protein 1 (Mus musculus, UniProt P38532); assay: enhancement of HSF1-driven luciferase signal – cell-based, NIH3T3, luminescence, dose retest, confirmation (AID 435004); type: functional;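 further: stress induced by proteasome inhibitor MG132 added 30 min after compound; luciferase reporter driven by HSF1 response element in NIH3T3 cells; actives raise luminescence as potentiators of the MG132 stress response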
T2 sequence (P38532 whole entry): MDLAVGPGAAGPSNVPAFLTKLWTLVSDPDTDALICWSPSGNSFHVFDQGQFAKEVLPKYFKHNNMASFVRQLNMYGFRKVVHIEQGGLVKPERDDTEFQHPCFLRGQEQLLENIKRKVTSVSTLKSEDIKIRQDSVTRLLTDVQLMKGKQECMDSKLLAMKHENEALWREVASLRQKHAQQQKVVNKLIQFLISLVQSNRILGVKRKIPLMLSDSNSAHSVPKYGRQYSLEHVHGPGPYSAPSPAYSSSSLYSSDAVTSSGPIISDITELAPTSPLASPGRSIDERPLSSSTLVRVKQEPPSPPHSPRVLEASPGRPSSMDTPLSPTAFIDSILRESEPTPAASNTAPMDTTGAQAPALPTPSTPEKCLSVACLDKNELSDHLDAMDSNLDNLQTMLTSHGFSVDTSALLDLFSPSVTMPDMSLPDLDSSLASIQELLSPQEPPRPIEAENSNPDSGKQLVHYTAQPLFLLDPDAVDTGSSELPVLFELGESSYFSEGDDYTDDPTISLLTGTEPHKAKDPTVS

[7] = molecular target: Disintegrin and metalloproteinase domain-containing protein 17 (Homo sapiens, UniProt P78536); assay: inhibition of ADAM17 substrate cleavage – biochemical, quenched FRET substrate, counter-screen for ADAM10 exosite inhibitor project, dose response (AID 743253)
[8] = T. cruzi growth inhibition in host cells, dose response, cell-based, plate reader, dry powder, set 2 (AID 652275); type: functional
[9] = molecular target: SWI/SNF-related matrix-associated actin-dependent regulator of chromatin subfamily A member 2 (Homo sapiens, UniProt P51531); assay: Luminescence-based cell-based high throughput dose response assay to identify activators of the function of SWI/SNF related, matrix associated, actin dependent regulator of chromatin, subfamily a, member 2 (SMARCA2, BRM).; type: functional
[10] = Counterscreen for activators of the function of SWI/SNF related, matrix associated, actin dependent regulator of chromatin, subfamily a, member 2 (SMARCA2, BRM): Luminescence-based cell-based high throughput dose response assay to identify non-selective compounds using the VP16 reporter assay.; type: functional
Beta-lactamase [11] = molecular target: T3, Beta-lactamase (Pseudomonas aeruginosa, UniProt Q79MP6); assay: […] counterscreen for selective VIM-2 inhibitors: dose response biochemical high throughput screening assay to identify inhibitors of IMP-1 metallo-beta-lactamase.
Beta-lactamase [12] = molecular target: T3, Beta-lactamase; assay: inhibition of IMP-1 beta-lactamase activity – biochemical, epi-absorbance, selectivity assay for VIM-2 inhibitor project, dose response (AID 1920)
Beta-lactamase [13] = molecular target: Beta-lactamase (Salmonella choleraesuis (strain SC-B67), UniProt Q5J463); assay: Epi-absorbance-based counterscreen for selective VIM-2 inhibitors: dose response biochemical high throughput screening assay to identify inhibitors of TEM-1 serine-beta-lactamase.
[14] = activation of miR-122 Renilla sensor silencing – cell-based, Huh7 psiCHECK-miR122, Renilla luciferase, cherry-picked, dose response (AID 651956); type: functional;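 further: huh7 hepatoma cells stably carrying a psiCHECK-2 miR-122 sensor plasmid; renilla luciferase signal reporting endogenous miR-122 activity after 48 h compound exposure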
[15] = general mammalian cell viability loss – activator set, cherry-pick, cytotoxicity control for miR-122 modulator project, dose response (AID 720690); type: functional, cell-based;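 further: HEK293T human cells scored for general mammalian cytotoxicity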
[16] = viability of uninfected HEp-2 cells – cell-based, HTS, cytotoxicity control for RSV inhibitor project, dose response (AID 2410); type: functional; conditions: human respiratory syncytial virus
[17] = molecular target: Fructose-bisphosphate aldolase (Mycobacterium tuberculosis, UniProt P9WQA3); assay: Fluorescence-based biochemical high throughput dose response assay for inhibitors of the fructose-bisphosphate aldolase (FBA) of M. tuberculosis.; type: functional
Sequence of Fructose-bisphosphate aldolase (P9WQA3 whole entry): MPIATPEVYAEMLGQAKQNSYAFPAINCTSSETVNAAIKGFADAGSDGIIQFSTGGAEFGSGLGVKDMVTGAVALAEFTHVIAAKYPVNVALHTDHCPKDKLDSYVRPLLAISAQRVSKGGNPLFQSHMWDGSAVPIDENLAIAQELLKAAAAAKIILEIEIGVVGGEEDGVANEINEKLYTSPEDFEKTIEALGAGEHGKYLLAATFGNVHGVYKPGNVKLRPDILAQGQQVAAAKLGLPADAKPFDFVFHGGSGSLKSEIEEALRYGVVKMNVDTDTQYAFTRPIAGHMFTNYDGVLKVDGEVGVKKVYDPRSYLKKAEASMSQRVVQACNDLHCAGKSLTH

T3 sequence (Q79MP6 whole entry): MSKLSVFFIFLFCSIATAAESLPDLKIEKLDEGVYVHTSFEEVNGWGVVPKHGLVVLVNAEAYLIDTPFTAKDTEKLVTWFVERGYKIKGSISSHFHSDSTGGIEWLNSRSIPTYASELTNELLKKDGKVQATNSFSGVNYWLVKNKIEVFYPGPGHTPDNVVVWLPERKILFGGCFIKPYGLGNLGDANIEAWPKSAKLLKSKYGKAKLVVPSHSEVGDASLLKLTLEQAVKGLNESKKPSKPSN
Sequence of SWI/SNF-related matrix-associated actin-dependent regulator of chromatin subfamily A member 2 (P51531 whole entry): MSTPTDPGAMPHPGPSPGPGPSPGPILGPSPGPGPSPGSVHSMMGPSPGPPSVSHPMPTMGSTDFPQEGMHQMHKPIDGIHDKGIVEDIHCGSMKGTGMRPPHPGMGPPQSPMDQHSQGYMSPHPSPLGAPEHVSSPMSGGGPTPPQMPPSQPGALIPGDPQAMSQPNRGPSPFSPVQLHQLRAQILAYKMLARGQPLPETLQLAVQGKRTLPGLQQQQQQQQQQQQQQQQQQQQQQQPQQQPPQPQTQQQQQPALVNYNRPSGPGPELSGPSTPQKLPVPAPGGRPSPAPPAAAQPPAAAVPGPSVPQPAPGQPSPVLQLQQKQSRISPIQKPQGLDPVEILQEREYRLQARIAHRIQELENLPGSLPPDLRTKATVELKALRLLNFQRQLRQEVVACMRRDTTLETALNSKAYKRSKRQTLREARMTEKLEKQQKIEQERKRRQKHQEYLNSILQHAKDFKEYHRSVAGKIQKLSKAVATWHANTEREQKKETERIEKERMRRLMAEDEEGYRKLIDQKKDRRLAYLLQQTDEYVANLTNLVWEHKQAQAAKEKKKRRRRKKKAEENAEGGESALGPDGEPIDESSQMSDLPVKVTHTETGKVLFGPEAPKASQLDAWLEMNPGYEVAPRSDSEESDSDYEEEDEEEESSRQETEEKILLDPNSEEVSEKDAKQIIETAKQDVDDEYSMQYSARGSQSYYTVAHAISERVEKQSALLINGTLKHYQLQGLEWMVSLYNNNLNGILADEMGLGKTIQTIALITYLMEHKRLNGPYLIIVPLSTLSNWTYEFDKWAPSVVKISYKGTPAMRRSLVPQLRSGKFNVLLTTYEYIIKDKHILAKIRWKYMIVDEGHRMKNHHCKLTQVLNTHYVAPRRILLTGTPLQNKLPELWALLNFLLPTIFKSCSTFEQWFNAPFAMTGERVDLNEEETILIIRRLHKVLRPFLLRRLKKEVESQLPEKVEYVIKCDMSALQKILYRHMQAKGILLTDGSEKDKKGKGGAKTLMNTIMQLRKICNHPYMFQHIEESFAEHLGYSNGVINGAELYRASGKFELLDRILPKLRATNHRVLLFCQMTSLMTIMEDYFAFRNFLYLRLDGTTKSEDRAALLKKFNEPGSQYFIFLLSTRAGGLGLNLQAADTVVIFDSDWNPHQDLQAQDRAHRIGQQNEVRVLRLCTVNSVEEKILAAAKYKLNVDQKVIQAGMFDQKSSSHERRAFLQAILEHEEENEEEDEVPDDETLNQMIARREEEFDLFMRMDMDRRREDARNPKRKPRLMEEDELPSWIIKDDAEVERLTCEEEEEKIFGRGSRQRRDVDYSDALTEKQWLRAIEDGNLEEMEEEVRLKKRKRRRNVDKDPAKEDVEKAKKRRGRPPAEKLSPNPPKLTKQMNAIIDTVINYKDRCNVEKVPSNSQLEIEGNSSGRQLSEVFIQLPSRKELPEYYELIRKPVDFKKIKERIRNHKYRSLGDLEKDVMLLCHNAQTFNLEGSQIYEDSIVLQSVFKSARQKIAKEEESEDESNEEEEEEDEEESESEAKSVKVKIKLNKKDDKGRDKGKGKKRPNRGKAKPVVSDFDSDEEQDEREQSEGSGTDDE
Sequence of Beta-lactamase (Salmonella choleraesuis (strain SC-B67), UniProt Q5J463) (Q5J463 whole entry): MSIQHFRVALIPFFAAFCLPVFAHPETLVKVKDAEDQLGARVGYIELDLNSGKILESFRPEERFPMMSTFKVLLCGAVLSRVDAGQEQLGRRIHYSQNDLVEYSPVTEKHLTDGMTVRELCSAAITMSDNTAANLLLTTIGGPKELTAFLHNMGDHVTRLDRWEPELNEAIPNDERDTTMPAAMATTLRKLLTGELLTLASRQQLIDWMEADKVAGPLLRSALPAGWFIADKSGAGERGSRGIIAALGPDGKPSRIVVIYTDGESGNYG
Sequence of Disintegrin and metalloproteinase domain-containing protein 17 (P78536 whole entry, the tested form may be a part): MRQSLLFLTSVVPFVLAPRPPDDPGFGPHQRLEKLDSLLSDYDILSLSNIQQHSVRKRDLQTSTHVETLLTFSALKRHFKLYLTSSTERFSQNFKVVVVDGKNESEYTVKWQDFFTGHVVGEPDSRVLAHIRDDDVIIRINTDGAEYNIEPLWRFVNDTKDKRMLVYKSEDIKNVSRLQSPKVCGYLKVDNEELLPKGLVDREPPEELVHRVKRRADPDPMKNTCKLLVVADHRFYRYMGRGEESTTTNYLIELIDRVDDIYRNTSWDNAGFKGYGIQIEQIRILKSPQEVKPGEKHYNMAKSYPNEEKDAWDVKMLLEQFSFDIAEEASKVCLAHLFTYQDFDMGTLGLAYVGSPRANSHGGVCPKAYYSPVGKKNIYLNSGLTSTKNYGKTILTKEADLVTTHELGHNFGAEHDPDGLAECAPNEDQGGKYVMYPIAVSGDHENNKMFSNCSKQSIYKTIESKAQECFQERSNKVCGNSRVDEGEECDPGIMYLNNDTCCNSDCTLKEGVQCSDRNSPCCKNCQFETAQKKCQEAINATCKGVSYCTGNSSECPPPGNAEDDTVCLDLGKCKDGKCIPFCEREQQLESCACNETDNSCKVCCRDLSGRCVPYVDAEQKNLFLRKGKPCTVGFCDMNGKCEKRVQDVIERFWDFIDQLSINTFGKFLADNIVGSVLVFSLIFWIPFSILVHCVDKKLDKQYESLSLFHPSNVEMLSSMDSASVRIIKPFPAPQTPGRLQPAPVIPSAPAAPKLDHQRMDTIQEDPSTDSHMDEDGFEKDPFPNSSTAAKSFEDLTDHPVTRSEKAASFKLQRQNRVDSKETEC

CN1C(=O)c2cc(NC(=O)C3CC3)ccc2OC[C@@H]2O[C@H](CC(=O)NC3CCC3)CC[C@H]21
AC50 [1]: 9.32 µM (active)

Cc1cc(Br)ccc1NC(=O)c1ccc(-n2cncn2)c([N+](=O)[O-])c1
IC50 [2]: 5.79 µM (active)
IC50 [3]: 83.3 µM (inactive)
IC50 [4]: 119 µM (inactive)

N#Cc1c(-c2ccccc2)c(-c2ccccc2)n(Cc2ccco2)c1NC(=O)c1cccs1
IC50 [5]: > 69.5 µM (inactive)
EC50 [6]: > 260 µM (inactive)
IC50 [7]: > 69.5 µM (inactive)

CN(C)CC#Cc1cccc(-c2nc(C(=O)NCc3ccc(Oc4ccccc4)cc3)cc3c2[C@@H](CCO)N([S+]([O-])C(C)(C)C)C3)c1 (stereo partly drawn)
AC50 [8]: 0.697 µM (active)

Nc1c(Cl)ncnc1Nc1ccc(C(=O)O)cc1
IC50 [2]: 3.93 µM (active)
IC50 [3]: 83.2 µM (inactive)
IC50 [4]: 12.5 µM (inactive)

CC(=O)Nc1cc(-c2ccc(N3CCN(C)CC3)cc2)cn2c(-c3ccc(F)cc3)cnc12
EC50 [9]: > 91.2 µM (inactive)
EC50 [10]: > 91.2 µM (inactive)

CC1CCCCC1n1c(S)nnc1-c1cccnc1 (stereo not drawn)
IC50 (Beta-lactamase [11]): > 59.6 µM (inactive)
IC50 (Beta-lactamase [12]): > 59.6 µM (inactive)
IC50 (Beta-lactamase [13]): > 59.6 µM (inactive)

C[C@@H]1CCCCO[C@@H](CN(C)CC2CCCCC2)[C@H](C)CN([C@H](C)CO)C(=O)c2cc(NC(=O)Nc3cccc4ccccc34)ccc2O1
AC50 [1]: 13.8 µM (active)
AC50 [14]: 7.47 µM (active)
AC50 [15]: 14.8 µM (active)

CC(C)(C)NC(=O)C(CCc1ccccc1)n1c(=O)c(-c2ccccc2)nc2ccccc21 (stereo not drawn)
EC50 [9]: > 91.1 µM (inactive)
EC50 [10]: > 91.1 µM (inactive)

COc1ccc(Cn2nnnc2C(CC(C)C)N2CCN(c3ccccc3)CC2)cc1 (stereo not drawn)
CC50 [16]: > 50 µM (active)
IC50 [17]: > 9.99 µM (inactive)

From ChEMBL document CHEMBL1201862, “PubChem BioAssay data set” (2004)
